Source: PMC10154249, “Unique progerin C-terminal peptide ameliorates Hutchinson–Gilford progeria syndrome phenotype by rescuing BUBR1” (Nature Aging, 2023)
“And” between values parts separate entries of the source, which are not always exact repeats. Identical values can stand only once.

Legend:
[1] = test system: BubR1 in Lmna^G609G/G609G mice; test: IHC of BubR1 in tissues of Lmna^G609G/G609G mice; type: in vivo, mouse; set-up: key to BubR1 IHC score: intensity score (0-3) × positive-cell score (0-4); range 0-12; conditions: 20 mg kg^–1 i.p. every other day
Description: (§1) For UPCP injection, 14-day-old Lmna^G609G/G609G mice were injected intraperitoneally with either PBS or UPCP (20 mg kg^–1, every other day) and wild-type mice were injected with PBS. All phenotypic analyses were performed after 12 weeks of treatment with UPCP. Bodyweight and lifespan were monitored after UPCP treatment. The survival rate was analyzed by the Kaplan–Meier method. We only included mice that were of sufficient bodyweight at the start of the experiment, typically at least 80% of the average littermate weight of the same sex and genotype. All animals meeting criteria for inclusion were then divided randomly into three groups according to genotype (Lmna^+/+, Lmna^G609G/G609G-Mock and Lmna^G609G/G609G-UPCP).
(§2) For histological analyses, mice of the indicated genotypes were perfused with PBS, then with 4% paraformaldehyde (PFA). Whole organs were incubated in 4% PFA at 4 °C for 16 h. All samples were paraffin embedded and sectioning by Servicebio. Subsequently, the tissues were deparaffinized and rehydrated before hematoxylin-eosin (HE) or Masson staining or immunohistochemistry (IHC). HE staining was performed using an HE Kit (Absin, catalog no. abs9217), and Masson staining was performed using Masson’s Trichrome Stain Kit (Absin, catalog no. abs9347) according to the manufacturer’s instructions. The thickness of the layers or the areas of fibrosis in the tissues were calculated using ImageJ software by a blinded investigator. For IHC, the sections were completed by the Servicebio. The images were acquired by a microscope (Leica DMi8) and analyzed with Leica Application Suite X v.3.6.0.24 (Leica). For BubR1, cytoplasmic staining in cells was scored on the intensity of staining and the proportion of positive cells by a blinded investigator. The intensity of the staining was graded as 0 (negative, no color), 1 (low positive, light yellow), 2 (positive, brown yellow) or 3 (high positive, brown), and the number of positive cells was graded as 0 (<5%), 1 (5–25%), 2 (25–50%), 3 (51–75%) or 4 (>75%). The final score was defined as staining number score multiplied by staining color score. For lamin B1, p21 or IL-6, the proportion of positive cells was used to quantify the expression of protein in tissues by a blinded investigator.

[2] = test system: esophagus of Lmna^G609G/G609G mice; test: Masson staining of esophagus (lamina propria); type: in vivo, mouse; conditions: 13 weeks; for aortic adventitia, mean / aortic adventitia: 20 mg kg^–1 i.p.
Description: as §1, with “All phenotypic analyses were performed after 12 weeks of treatment with UPCP.” left out
as §2

[3] = test system: heart of Lmna^G609G/G609G mice; test: Masson staining of heart (fibrosis); type: in vivo, mouse; conditions: 13 weeks
Description: as §1, with “All phenotypic analyses were performed after 12 weeks of treatment with UPCP.” left out
as §2

[4] = test system: HGADFN003 cells; test: γH2AX-53BP1 foci in HGADFN003 cells; type: cell-based, human
Description: Immunofluorescence was performed as described previously. Cells were plated on cover slips in 12-well plates, left overnight before the treatment. Cells were fixed in 1% formaldehyde in culture medium for 10 min at 37 °C and permeabilized with 0.2% Triton X-100 in PBS for 10 min at room temperature. Cells were washed twice in PBS and blocked for 1 h with 5% BSA in PBS and then incubated with primary antibodies at 4 °C overnight, washed three times in PBS and incubated with secondary antibodies for 1 h at room temperature. Cell nuclei were counterstained with a 500 nM concentration of 4,6-diamidino-2-phenylindole (DAPI) (Sigma). Images were acquired by a fluorescence microscope (OLYMPUS FV-1000, Carl Zeiss LSM880 or Leica DMi8) and analyzed with software NIS-Elements AR v.5.0.1 (Nikon), FLUOVIEW v.4.2b (OLYMPUS), ZEN v.2.3 SP1 (Carl Zeiss) and Leica Application Suite X v.3.6.0.24 (Leica). Cells were quantified by investigators who were blinded to the identity of the analyzed cell.

[5] = 20 mg kg^–1 i.p. every other day

H-YGRKKRRQRRRYNLRSRTVLCGTCGQPADKASASGSGAQSPQNCSIM-OH (cysteines drawn unpaired) [UPCP, unique progerin C-terminal peptide]
BubR1 IHC score ([1]; aorta, No. 1): 7 | BubR1 IHC score ([1]; aorta, No. 2): 8.4 | BubR1 IHC score ([1]; aorta, No. 3): 12 | BubR1 IHC score ([1]; aorta, No. 4): 8.6 | BubR1 IHC score ([1]; aorta, No. 5): 8 | BubR1 IHC score ([1]; aorta, No. 6): 6 | BubR1 IHC score ([1]; lung, No. 1): 1 | BubR1 IHC score ([1]; lung, No. 2): 2 | BubR1 IHC score ([1]; lung, No. 3): 2.4 | BubR1 IHC score ([1]; lung, No. 4): 1.2 | BubR1 IHC score ([1]; lung, No. 5): 1.4 | BubR1 IHC score ([1]; lung, No. 6): 1.2 | BubR1 IHC score ([1]; skin, No. 1): 10.4 | BubR1 IHC score ([1]; skin, No. 2): 8 | BubR1 IHC score ([1]; skin, No. 3): 5.6 | BubR1 IHC score ([1]; skin, No. 4): 7.2 | BubR1 IHC score ([1]; skin, No. 5): 12 | BubR1 IHC score ([1]; skin, No. 6): 12 | BubR1 expression ([1]; skin, esophagus, lung and spleen): increased the expression of BubR1 | BubR1 IHC score ([1]; spleen, No. 1): 7.6 | BubR1 IHC score ([1]; spleen, No. 2): 6.8 | BubR1 IHC score ([1]; spleen, No. 3): 6 | BubR1 IHC score ([1]; spleen, No. 4): 7.8 | BubR1 IHC score ([1]; spleen, No. 5): 7.6 | BubR1 IHC score ([1]; spleen, No. 6): 7.2 | fibrosis of lamina propria, esophagus [2, 5]: reduced fibrosis of lamina propria in the esophagus and heart | thickness of lamina propria, esophagus [2, 5]: decreased the thickness of the lamina propria in the esophagus | aortic adventitia, mean ([2]; sample 1, mean of 3 measurements): 9.139 μm | aortic adventitia ([2]; sample 1, measurement 1): 9.452 μm | aortic adventitia ([2]; sample 1, measurement 2): 8.478 μm | aortic adventitia ([2]; sample 1, measurement 3): 9.488 μm | aortic adventitia, mean ([2]; sample 2, mean of 3 measurements): 9.054 μm | aortic adventitia ([2]; sample 2, measurement 1): 9.392 μm | aortic adventitia ([2]; sample 2, measurement 2): 8.624 μm | aortic adventitia ([2]; sample 2, measurement 3): 9.147 μm | aortic adventitia, mean ([2]; sample 3, mean of 3 measurements): 10.936 μm | aortic adventitia ([2]; sample 3, measurement 1): 10.5409 μm | aortic adventitia ([2]; sample 3, measurement 2): 9.16 μm | aortic adventitia ([2]; sample 3, measurement 3): 13.1073 μm | fibrosis, heart [3, 5]: reduced fibrosis of lamina propria in the esophagus and heart | fibrosis area/ total area, heart ([3]; 20 mg kg^–1 i.p., replicate 1): 0.003612 and 0.3612% | fibrosis area, heart ([3]; 20 mg kg^–1 i.p., replicate 1, total area 1.938): 0.007 | fibrosis area, heart ([3]; 20 mg kg^–1 i.p., replicate 2, total area 1.976): 0.002 | fibrosis area, heart ([3]; 20 mg kg^–1 i.p., replicate 3, total area 2.43): 0.004 | γH2AX and 53BP1 positive cells (/Mock) ([4]; HGADFN003, relative to Mock = 100, replicate 1): 45% | γH2AX and 53BP1 positive cells (/Mock) ([4]; HGADFN003, relative to Mock = 100, replicate 2): 55% | γH2AX and 53BP1 positive cells (/Mock) ([4]; HGADFN003, relative to Mock = 100, replicate 3): 50% | γH2AX-53BP1 foci ([4]; HGPS fibroblasts): lower level of γH2AX-53BP1 foci
